# “And” between values parts separate entries of the source, which are not always exact repeats. Identical values can stand only once.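 Dose response: 5 concentrations. Exposure: 48 h. Format: 96-well plates. Endpoint: linear interpolation; highest concentration if not reached. GI50 = concentration required for 50% inhibition of growth. TGI denotes the concentration required for complete inhibition of growth.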
# Assays:
# Experiment in all cases: NCI anticancer screen, dose series, 48 h
# [1] = test system: HOP-92 NSCLC
# [2] = test system: UO-31 renal
# [3] = test system: UACC-62 melanoma
# [4] = test system: KM12 colon
# [5] = test system: SNB-19 CNS
# [6] = test system: OVCAR-8 ovarian
# [7] = test system: HCT-15 colon
# [8] = test system: UACC-257 melanoma
# [9] = test system: SK-MEL-5 melanoma
# [10] = test system: DU-145 prostate
SMILES,TGI [1],TGI [2],TGI [3],TGI [4],TGI [5],TGI [6],TGI [7] [µM],TGI [8],TGI [9],GI50 [1],GI50 [2],GI50 [3],GI50 [4],GI50 [5],GI50 [6],GI50 [10],TGI [10],GI50 [7],GI50 [8],GI50 [9]
CCC(/C(=N/NC(=O)C[N+](C)(C)C)c1ccccc1)C1OC(=O)c2ccccc21 (stereo not drawn),> 100 µM,> 100 µM,> 100 µM,> 100 µM,> 100 µM,> 100 µM,> 100,> 100 µM,> 100 µM,–,–,–,–,–,–,–,–,–,–,–
O=S1(=O)CC#CC[C@@H](CO)[C@@H](CO)CC#CC1,90.3 µM,> 100 µM,> 100 µM,> 100 µM,–,> 100 µM,> 100,> 100 µM,> 100 µM,–,–,–,–,–,–,–,–,–,–,–
COc1ccc(C2CC(=O)Nc3c2c(C)nn3-c2nc3ccccc3[nH]2)cc1OC (stereo not drawn),35.1 µM,14.6 µM,12.8 µM,14.1 µM,> 100 µM,43.6 µM,> 58.9,55.4 µM,6.17 µM,6.01 µM,3.37 µM,3.15 µM,3.7 µM,8.64 µM,4.09 µM,6.87 µM,27.1 µM,4.76 µM,6.46 µM,2.42 µM
Cc1cc(NCCCCCCCCNc2cc(C)nc3cc(N(C)C)ccc23)c2ccc(N(C)C)cc2n1,8.04 µM,> 100 µM,–,19.6 µM,61.6 µM,38.2 µM,> 100,23.1 µM,–,–,–,–,–,–,–,–,–,–,–,–
Cn1cc(-c2[nH]c3cc(NC(=O)[C@H](N)C4CCCCC4)cc4c3c2C=NNC4=O)cn1,0.821 µM and > 4.52 µM,9.07 µM and > 10 µM,18.7 µM and > 10 µM,12.7 µM and > 10 µM,19.7 µM and > 10 µM,4.08 µM and > 10 µM,> 72,18.8 µM and > 10 µM,13.1 µM and > 10 µM,0.0783 µM and 0.2 µM,2.54 µM and 2.35 µM,0.484 µM and 0.704 µM,1.66 µM and 0.95 µM,0.65 µM and 0.47 µM,0.264 µM and 0.351 µM,0.508 µM and 0.528 µM,19.8 µM and > 10 µM,12 µM and 5.1 µM,4.16 µM and > 6.97 µM,0.696 µM and 0.55 µM
COC1C[C@H](O[C@@H]2C[C@H](O[C@@H]3C[C@H](O[C@@H]4C(=O)c5c(cc6cc(O[C@H]7C[C@@H](O[C@H]8C[C@@H](O)[C@H](O)C(C)O8)[C@H](O)C(C)O7)c(C)c(O)c6c5O)C[C@H]4C(OC)C(=O)[C@@H](O)[C@@H](C)O)OC(C)[C@H]3O)OC(C)[C@@H]2O)OC(C)[C@@H]1O (stereo partly drawn),0.25 µM,4.76 µM,0.134 µM,–,> 32.5 µM,> 32.5 µM,> 32.5,0.262 µM,0.175 µM,0.0551 µM,0.294 µM,0.0434 µM,–,0.101 µM,0.108 µM,0.125 µM,> 32.5 µM,2.19 µM,0.0825 µM,0.0641 µM
C#CCN(Cc1ccc2nc(-c3ccccc3)c(Cl)nc2c1)c1ccc(Cl)c(Cl)c1,> 100 µM,> 100 µM,> 100 µM,> 100 µM,> 100 µM,> 100 µM,> 100,> 100 µM,> 100 µM,–,–,–,–,–,–,–,–,–,–,–
C=C1C(=O)O[C@H]2[C@H]1CC/C(COC(=O)NCCc1ccc(Br)cc1)=C\CC[C@@]1(C)O[C@@H]21,2.77 µM,2.95 µM,–,4.46 µM,2.97 µM,3.69 µM,2.33,3.09 µM,3.22 µM,1.28 µM,1.55 µM,–,1.95 µM,1.39 µM,1.49 µM,0.771 µM,2.04 µM,1.01 µM,1.63 µM,1.71 µM
Oc1ccc(Cl)cc1N=Nc1c(O)ccc2ccccc12,> 100 µM,> 100 µM,> 100 µM,> 100 µM,> 100 µM,> 100 µM,> 100,> 100 µM,> 100 µM,–,–,–,–,–,–,–,–,–,–,–
COc1ccc(NC(=O)CC2SC(=Nc3ccc(Cl)cc3C)NC2=O)c([N+](=O)[O-])c1 (stereo not drawn),> 100 µM,> 100 µM,> 100 µM,–,> 100 µM,> 100 µM,> 100,> 100 µM,> 100 µM,–,–,–,–,–,–,–,–,–,–,–
COc1ccc(C2[C@@H](Cl)C(=O)N2c2ccc(OC)cc2)cc1 (stereo partly drawn),39.5 µM,> 100 µM,> 100 µM,> 100 µM,> 100 µM,> 100 µM,–,> 100 µM,> 100 µM,–,–,–,–,–,–,–,–,–,–,–
COc1cc(OC)c(OC)cc1/C=C/c1ccc2ccccc2n1,> 10 µM,–,> 10 µM,> 10 µM,–,> 10 µM,> 10,> 10 µM,> 10 µM,–,–,–,–,–,–,–,> 10 µM,–,–,–
CS(=O)(=O)Nc1cc(-c2ccc3ncnc(Nc4ccc(OCc5ccccn5)c(Cl)c4)c3c2)cnc1Cl,–,3.86 µM,1.58 µM,2.18 µM,> 100 µM,26.8 µM,> 42,7.1 µM,0.68 µM,–,0.337 µM,0.264 µM,0.572 µM,0.449 µM,1.36 µM,0.52 µM,> 100 µM,1.13 µM,0.378 µM,0.214 µM
Cc1ccc(C2=C(c3ccccc3)C(O)(c3ccccc3)C(c3ccccc3)=C2c2ccc(C)cc2)cc1,–,> 100 µM,–,> 100 µM,> 100 µM,> 100 µM,> 100,> 100 µM,> 100 µM,–,–,–,–,–,–,–,–,–,–,–
O=C(C#Cc1ccccc1)N1CCCCC1,> 100 µM,–,> 100 µM,> 100 µM,> 100 µM,> 100 µM,> 100,> 100 µM,> 100 µM,–,–,–,–,–,–,–,> 100 µM,–,–,–
Nc1nc2c(nnn2C2C=C(CO)C(O)C2O)c(=O)[nH]1 (stereo not drawn),> 100 µM,> 100 µM,> 100 µM,> 100 µM,> 100 µM,> 100 µM,> 100,> 100 µM,> 100 µM,–,–,–,–,–,–,–,–,–,–,–
c1ccc(C2SCc3nc4ccccc4n32)cc1 (stereo not drawn),> 100 µM,> 100 µM,> 100 µM,> 100 µM,> 100 µM,> 100 µM,> 100,77.6 µM,56.4 µM,–,–,–,–,–,–,–,–,–,–,–
CCN(CC(O)COc1ccc2c(c1)[n+]([O-])nc(N)[n+]2[O-])C(C)=O (stereo not drawn),–,> 100 µM,> 100 µM,> 100 µM,> 100 µM,> 100 µM,> 100,> 100 µM,> 100 µM,–,–,–,–,–,–,–,> 100 µM,–,–,–
